Legend:
[1] = test system: poly(U)•poly(A)*poly(U) (RNA, polymer) U/A/U; assay: UV melting at 260 nm; settings: 35 mM Na+ (25 mM NaCl, 10 mM sodium cacodylate), 0.1 mM Na2EDTA, pH 7.0, D/P 0.6, triplex 30 µM (compound 18 µM), third-strand transition, per base
[2] = test system: poly(U)•poly(A)*poly(U) (RNA, polymer) U/A/U; assay: fluorescence titration, Scatchard, McGhee-von Hippel non-cooperative; settings: 35 mM Na+ (25 mM NaCl, 10 mM sodium cacodylate), 0.1 mM Na2EDTA, pH 7.0, 25 °C, intrinsic constant per isolated site, per base
[3] = test system: poly(U)•poly(A)*poly(U) (RNA, polymer) U/A/U; assay: ITC, single set of sites; settings: 35 mM Na+ (25 mM NaCl, 10 mM sodium cacodylate), 0.1 mM Na2EDTA, pH 7.0, 25 °C, triplex 25 µM, per base
[4] = test system: poly(U)•poly(A)*poly(U) (RNA, polymer) U/A/U; assay: absorbance titration, Scatchard, McGhee-von Hippel non-cooperative; settings: 35 mM Na+ (25 mM NaCl, 10 mM sodium cacodylate), 0.1 mM Na2EDTA, pH 7.0, 25 °C, intrinsic constant per isolated site, per base

ΔTm' (3→2) [1] [°C]	Ki [2]	Ka [3]	Ki [4]	Structure (SMILES)
17.5	3.9±0.05 × 10^5 M^-1	1.5±0.04 × 10^5 M^-1	2.88±0.02 × 10^5 M^-1	COc1ccc2cc3[n+](cc2c1OC)CCc1cc2c(cc1-3)OCO2
18.1	9.5±0.10 × 10^5 M^-1	9.73±0.09 × 10^5 M^-1	8.65±0.34 × 10^5 M^-1	COc1ccc2cc3[n+](cc2c1OCCCN)CCc1cc2c(cc1-3)OCO2
20.5	47.0±0.56 × 10^5 M^-1	23±0.10 × 10^5 M^-1	39.87±0.41 × 10^5 M^-1	COc1ccc2cc3[n+](cc2c1OCCCCCCN)CCc1cc2c(cc1-3)OCO2

Reference: PMC3362543 (2012)
